Measured values reported in patent EP1916301A1, “METHOD FOR […] USING MOLECULE ON THE RB PATHWAY AS INDEX AND MOLECULAR […]” (BANYU PHARMACEUTICAL CO., LTD., priority 2005, dated 2007).

Columns and labels:
U-2 OS cell = experiment: Cell cycle analysis by flow cytometry (DNA staining) after doxorubicin treatment; assay type: cell-based; details: for cell cycle arrest: 10 nM doxorubicin
Experimental: (§1) First, the U-2 OS cell and U-2 OS shRb cell were treated with 10 nM doxorubicin. The cells were collected after 24 hours and 48 hours, and the DNA of the cells were stained with the Cycle TESTTM PLUS DNA Reagent Kit (Becton Dickinson), and an analysis was carried out by flow cytometry.
(§2) Further, in what phase the respective cells were maintained in the cell cycle under the respective conditions is shown in Table 2. (Table 2)

U-2 OS shRb cell = experiment: Cell cycle analysis by flow cytometry (DNA staining) after doxorubicin treatment, Rb knockdown cell; assay type: cell-based
Experimental: Into U-2 OS cells with wild-type Rb, pSuperior-puro.shRb vector was transfected using Funege 6. After the transfected cells were cultured for 24 hours, the cells were cultured such that the number of cells became about one fiftieth, and then, the cells were cultured for about two weeks in the presence of 1.0 µg/mL of puromycin. A cell that formed a colony was isolated by a cylinder cloning method. Hereinafter, the established Rb knockdown cell was referred to as U-2 OS shRb.
as §1, §2

[1] = 10 nM doxorubicin for 24 hours, cell having only a vector introduced (Fig. 4)
[2] = 10 nM doxorubicin for 48 hours, cell having only a vector introduced (Fig. 5)
[3] = 10 nM doxorubicin for 24 hours, cell having an Rb shRNA introduced (Fig. 7)
[4] = 10 nM doxorubicin for 48 hours, cell having an Rb shRNA introduced (Fig. 8)

Structure (SMILES): COc1cccc2c1C(=O)c1c(O)c3c(c(O)c1C2=O)C[C@@](O)(C(=O)CO)C[C@@H]3O[C@H]1C[C@H](N)[C@H](O)[C@H](C)O1 [doxorubicin]
- G1 (%) (U-2 OS cell; [1]): 20%
- G2/M (%) (U-2 OS cell; [1]): 68%
- S (%) (U-2 OS cell; [1]): 11%
- G1 (%) (U-2 OS cell; [2]): 29%
- G2/M (%) (U-2 OS cell; [2]): 66%
- S (%) (U-2 OS cell; [2]): 5.4%
- cell cycle arrest (U-2 OS cell; at 24 hours after the treatment): arrested in the G2/M phase
- cell cycle arrest (U-2 OS cell; at 48 hours after the treatment): arrested in the G2/M phase
- G1 (%) (U-2 OS shRb cell; [3]): 35%
- G2/M (%) (U-2 OS shRb cell; [3]): 45%
- S (%) (U-2 OS shRb cell; [3]): 19%
- G1 (%) (U-2 OS shRb cell; [4]): 62%
- G2/M (%) (U-2 OS shRb cell; [4]): 23%
- S (%) (U-2 OS shRb cell; [4]): 16%
- cell cycle arrest (U-2 OS shRb cell; 10 nM doxorubicin, at 24 hours after the treatment): arrested in the G2/M phase
- G2/M phase arrest (U-2 OS shRb cell; 10 nM doxorubicin, at 48 hours after the treatment): not maintained
